Data taken from BindingDB's records for doi:10.1021/acs.jnatprod.9b00140 (University of Illinois At Chicago, 2019).

Biological target: Transcription factor p65 (Human, UniProt Q04206)
Assay: Inhibition of TNF alpha stimulated NF-KappaB p65 in human HeLa nuclear extract assessed as decrease in NF-KappaB translocation to nucleus measured after 5 hrs by ELISA

Chain of Transcription factor p65 (Q04206 whole entry): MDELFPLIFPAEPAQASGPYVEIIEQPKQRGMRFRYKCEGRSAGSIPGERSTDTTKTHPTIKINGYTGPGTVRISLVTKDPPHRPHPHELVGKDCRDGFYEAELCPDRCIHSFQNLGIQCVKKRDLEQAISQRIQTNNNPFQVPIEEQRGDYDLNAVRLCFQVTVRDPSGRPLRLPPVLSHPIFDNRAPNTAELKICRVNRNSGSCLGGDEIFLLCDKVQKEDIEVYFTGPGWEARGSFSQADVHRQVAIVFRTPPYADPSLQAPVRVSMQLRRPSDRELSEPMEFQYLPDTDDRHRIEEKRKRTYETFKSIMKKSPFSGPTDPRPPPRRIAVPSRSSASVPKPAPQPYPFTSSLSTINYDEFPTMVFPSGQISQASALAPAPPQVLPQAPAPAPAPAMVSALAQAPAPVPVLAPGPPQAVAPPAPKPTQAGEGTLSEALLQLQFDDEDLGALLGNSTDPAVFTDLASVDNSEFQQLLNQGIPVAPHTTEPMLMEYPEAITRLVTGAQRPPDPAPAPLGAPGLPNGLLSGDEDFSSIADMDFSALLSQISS

C[C@H]1O[C@@H](O[C@H]2CC[C@]3(C)[C@H]4CC[C@]5(C)[C@@H](C6=CC(=O)OC6)CC[C@]5(O)[C@@H]4CC[C@]3(O)C2)C[C@H](O)[C@@H]1O[C@@H]1O[C@H](CO)[C@@H](O)[C@H](O)[C@H]1O was tested, and the IC50 was 4.3 µM.
